# Experimental data published in patent publication US20260021046A1, “LIPID NANOPARTICLE AND PHARMACEUTICAL COMPOSITION” (NATIONAL UNIVERSITY CORPORATION HOKKAIDO UNIVERSITY, priority 2022, published 2026).
# Tests used:
# [1] = tested on: normal mice; experiment: Biological safety in normal mice (serum markers, histopathology); format: in vivo; details: CL15A6 lipid nanoparticles with EGFP mRNA, 2 mg/kg RNA iv, 24 hours
# Experimental: In order to exclude the effects of liver fibrosis on hepatic function and tissues, the biosafety of the lipid nanoparticle prepared by using CL15A6 was evaluated in normal mice. Lipid nanoparticles containing EGFP mRNA were administered intravenously to mice at an amount of 2 mg/kg RNA per kg body weight. Twenty-four hours after the administration, the mice were euthanized, and serum and major organs were collected and analyzed in comparison with control mice treated with HEPES buffer. Aspartate transaminase (AST), alanine aminotransferase (ALT), and creatinine (CRE), which are functional markers of the liver or kidney, in plasma were colorimetrically quantified using a commercially available kit (Sigma-Aldrich), and the results were compared. In addition, the collected organs were fixed, stained with hematoxylin and eosin, and histopathologically evaluated as described in NPL 17. • [NPL 17] Mahmoud A. Younis, et al., “Ultra-small lipid nanoparticles encapsulating sorafenib and midkine-siRNA selectively-eradicate sorafenib-resistant hepatocellular carcinoma in vivo”, J Control Release, Vol. 331, pp. 335-349
# [2] = tested on: SMO mRNA; experiment: In vivo SMO mRNA knockdown in liver tissue by qRT-PCR; set-up: species or system mice; details: SMO-siRNA lipid nanoparticles, 0.5 mg/kg RNA iv, 24 hours, versus HEPES buffer control
# Experimental: TAA-induced liver fibrosis model mice were prepared in the same manner as in Example 1, and SMO-siRNA-encapsulated lipid nanoparticles were intravenously administered to the mice via the tail vein so that the amount of RNA per kg of body weight was 0.5 mg/kg. 24 hours after the administration, the mouse livers were collected. The ratio of the amount of SMO mRNA to the amount of GAPDH mRNA in the liver tissue was confirmed by qRT-PCR. The SMO gene is expressed only in hepatic stellate cells in the liver.
# Next, a lipid composition containing CL15H6 and SMO-siRNA were mixed in different ratios to prepare lipid nanoparticles with different nitrogen/phosphate (N/P) ratios. Specifically, lipid nanoparticles were prepared with N/P ratios of 0.5, 1, 2, 4, 8, 12, 16, and 20. The prepared lipid nanoparticles were intravenously administered to mice with liver fibrosis so that the amount of RNA per kg of body weight was 0.5 mg/kg, and the ratio of the amount of SMO mRNA to the amount of GAPDH mRNA in the liver tissue was confirmed 24 hours later.
# Next, the relationship between the dosage amount of SMO-siRNA and the ratio of the amount of SMO mRNA to the amount of GAPDH mRNA in the liver tissue was examined. For comparison, the relationship between the dosage amount of control siRNA (siCtrl) and the ratio of SMO mRNA to GAPDH mRNA in hepatic stellate cells was also examined.
# Lipid nanoparticles encapsulating a mixture of the above SMO-siRNA and TGFβ1-siRNA at a ratio of 1:1 were prepared by using CL15H6, the above SMO-siRNA (SEQ ID NOs: 1 and 2) targeting the mRNA of the SMO gene and the TGFβ1-siRNA (SEQ ID NOS: 3 and 4) targeting the mRNA of the TGFβ1 gene and having the sequence shown in Table 4 below. The prepared lipid nanoparticles were intravenously administered to mice with liver fibrosis so that each of the amounts of SMO-siRNA and of TGFβ1-siRNA per kg of body weight was 0.25 mg/kg, and 24 hours later, the ratios of the amounts of SMO mRNA and of TGFβ1 mRNA to the amount of GAPDH mRNA in the liver tissue was confirmed.
compound,measurement,setting,value
"CCCCC/C=C\C/C=C\CCCCCCCCC(O)(CCCCCCCC/C=C\C/C=C\CCCCC)CCCCOC(=O)C1CCN(C)CC1 [CL15A6, (14z,17z)-5-hydroxy-5-((9z,12z)-octadeca-9,12-dien-1-yl)tricosa-14,17-dien-1-yl 1-methylpiperidine-4-carboxylate]",ALT,[1],no significant increases
same,AST,[1],no significant increases
same,CRE,[1],no significant increases
same,"histopathology of major organs (liver, lung, heart, and kidney)",[1],no signs of injury
same,amount of SMO mRNA (ratio to GAPDH mRNA) in liver tissue,[2],significantly reduced
